Measured values reported in ChEMBL document CHEMBL1201862, “PubChem BioAssay data set” (2004).
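These data come from cells grown in 96-well plates and exposed to compound for 48 hours at five concentrations. Abbreviation: GI50, concentration required for 50% inhibition of growth.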 Active and inactive are the calls of the source. Rule as the data show it: active = GI50 up to about 1.1 µM and inactive = higher.

How the values were obtained:
Assay in all cases: NCI anticancer screen, dose series, 48 h
[1] = test system: 786-0
[2] = test system: ACHN
[3] = test system: DLD-1
[4] = test system: DMS-273
[5] = test system: EKVX
[6] = test system: HCC 2998
[7] = test system: HL-60
[8] = test system: HT-29
[9] = test system: KM12
[10] = test system: LOX IMVI
[11] = test system: MDA-MB-231
[12] = test system: MDA-MB-435
[13] = test system: Malme-3M
[14] = test system: PC-3
[15] = test system: RXF 393
[16] = test system: SF-539
[17] = test system: SK-MEL-5
[18] = test system: SNB-19
[19] = test system: SNB-75
[20] = test system: SNB-78

SMILES | GI50 [1] | GI50 [2] | GI50 [3] | GI50 [4] | GI50 [5] | GI50 [6] | GI50 [7] | GI50 [8] | GI50 [9] | GI50 [10] | GI50 [11] | GI50 [12] | GI50 [13] | GI50 [14] | GI50 [15] | GI50 [16] | GI50 [17] | GI50 [18] | GI50 [19] | GI50 [20]
CNC(=O)OCc1nc(SC)n(C)c1COC(=O)NC | 139 µM (inactive) | 64.1 µM (inactive) | 183 µM (inactive) | 86.5 µM (inactive) | 230 µM (inactive) | 122 µM (inactive) | 55.2 µM (inactive) | 205 µM (inactive) | 191 µM (inactive) | 133 µM (inactive) | 187 µM (inactive) | 161 µM (inactive) | 113 µM (inactive) | 171 µM (inactive) | 50.8 µM (inactive) | 133 µM (inactive) | 153 µM (inactive) | 233 µM (inactive) | 167 µM (inactive) | 68.4 µM (inactive)
CCOC(=O)[C@H]1Nc2ccc(Cl)cc2[C@H]2OCC[C@@H]12 | > 100 µM (inactive) | > 100 µM (inactive) | > 100 µM (inactive) | > 100 µM (inactive) | > 100 µM (inactive) | > 100 µM (inactive) | > 100 µM (inactive) | > 100 µM (inactive) | > 100 µM (inactive) | > 100 µM (inactive) |  |  | > 100 µM (inactive) |  | > 100 µM (inactive) | > 100 µM (inactive) | > 100 µM (inactive) | > 100 µM (inactive) | > 100 µM (inactive) | > 100 µM (inactive)
O=C1CCC(=O)c2cc(Br)ccc2N1 | > 100 µM (inactive) | > 100 µM (inactive) | > 100 µM (inactive) | > 100 µM (inactive) | > 63.2 µM (inactive) | > 100 µM (inactive) | > 100 µM (inactive) | > 100 µM (inactive) | > 100 µM (inactive) | > 96.6 µM (inactive) |  |  | > 100 µM (inactive) |  | > 74.1 µM (inactive) | > 100 µM (inactive) | > 100 µM (inactive) | > 100 µM (inactive) | > 100 µM (inactive) | > 100 µM (inactive)
CC1(c2ccc(Cl)cc2)C2C(=O)NC(=O)C1C(=O)NC2=O (centres undefined) | > 100 µM (inactive) | > 100 µM (inactive) | > 100 µM (inactive) | > 100 µM (inactive) | > 100 µM (inactive) | > 100 µM (inactive) | > 100 µM (inactive) | > 100 µM (inactive) | > 100 µM (inactive) | > 100 µM (inactive) |  |  | > 100 µM (inactive) |  | > 100 µM (inactive) | > 100 µM (inactive) | > 100 µM (inactive) | > 100 µM (inactive) | > 100 µM (inactive) | > 100 µM (inactive)
CC(C)=CC(=O)OC1C2C(C)C(=O)OC2C(O)C(C)C2C=CC(=O)C21C (centres undefined) |  |  | 1.14 µM (inactive) | 4.25 µM (inactive) | 2.92 µM (inactive) | 5.47 µM (inactive) | 0.826 µM (active) | 3.21 µM (inactive) | 4.03 µM (inactive) | 0.918 µM (active) |  |  | 3.58 µM (inactive) |  | 1.28 µM (inactive) | 3.61 µM (inactive) | 3.32 µM (inactive) | 7.38 µM (inactive) | 2.72 µM (inactive) | 3.24 µM (inactive)
Cc1cc(N(CCC#N)CCC#N)ccc1/N=N/c1cccc(C(=O)O)c1 | > 100 µM (inactive) | > 100 µM (inactive) | > 100 µM (inactive) | > 100 µM (inactive) | > 100 µM (inactive) | > 100 µM (inactive) | > 100 µM (inactive) | > 100 µM (inactive) | > 100 µM (inactive) | > 100 µM (inactive) |  |  | 83 µM (inactive) |  | > 100 µM (inactive) | > 100 µM (inactive) | > 100 µM (inactive) |  | 34.1 µM (inactive) | > 100 µM (inactive)
CC(C)CCCCCCCCCCCCC(=O)NCC(=O)NC1C(C)OC(Nc2ncnc3c2ncn3C)C(O)C1O (centres undefined) |  |  | 12.1 µM (inactive) | 1.81 µM (inactive) | > 100 µM (inactive) | 1.28 µM (inactive) | 0.485 µM (active) | 4.2 µM (inactive) | 5.47 µM (inactive) | 5.3 µM (inactive) |  |  | 2.32 µM (inactive) |  | 2.89 µM (inactive) | 2.82 µM (inactive) | > 74.3 µM (inactive) | 2.88 µM (inactive) | 2.33 µM (inactive) | 4.72 µM (inactive)
CN1OC(=O)N(C)C1c1ccccc1 (centres undefined) |  |  | > 100 µM (inactive) | > 100 µM (inactive) | > 100 µM (inactive) | > 100 µM (inactive) | > 100 µM (inactive) | > 100 µM (inactive) | > 100 µM (inactive) | > 100 µM (inactive) |  |  | > 100 µM (inactive) |  | > 100 µM (inactive) | > 100 µM (inactive) | > 100 µM (inactive) | > 100 µM (inactive) | > 100 µM (inactive) | > 100 µM (inactive)
O=C(c1ccc(O)cc1O)C1C(c2ccc(O)cc2)OC(c2ccc(O)cc2)C1C(=O)c1ccc(O)cc1O (centres undefined) | 5.38 µM (inactive) | 22.2 µM (inactive) | 44.1 µM (inactive) | 16 µM (inactive) | 21.2 µM (inactive) | 13.8 µM (inactive) | 17.8 µM (inactive) | 34.2 µM (inactive) | 21.9 µM (inactive) | 19.5 µM (inactive) |  |  | 14.2 µM (inactive) |  | 25.5 µM (inactive) | 20 µM (inactive) | 16.1 µM (inactive) | 20.6 µM (inactive) | 16.6 µM (inactive) | 19.1 µM (inactive)
CCC1(c2ccc(N)cc2)CCC(=O)NC1=O (centres undefined) [AMINOGLUTETHIMIDE] | 3420 µM (inactive) | 2490 µM (inactive) | 3230 µM (inactive) | 2560 µM (inactive) | 3880 µM (inactive) | 3680 µM (inactive) | 1280 µM (inactive) | 2960 µM (inactive) | 2470 µM (inactive) | 2770 µM (inactive) | 2610 µM (inactive) | > 2740 µM (inactive) | 2960 µM (inactive) | 1170 µM (inactive) | 1330 µM (inactive) | 3240 µM (inactive) | 2090 µM (inactive) | 3350 µM (inactive) | 1910 µM (inactive) | 2170 µM (inactive)
